Reference: US11312723B2, “Pyranopyrazole and pyrazolopyridine immunomodulators for treatment of autoimmune diseases” (The Rockefeller University, priority 2017, dated 2022)

target: Human FXIIa (Homo sapiens (Human), UniProt P00748); assay: Factor XIIa (FXIIa) inhibitory activity, chromogenic substrate (Pefachrome XIIa) cleavage; assay type: biochemical; settings: 10 min pre-incubation, Pefachrome XIIa 400 μM
Sequence (P00748 373-615): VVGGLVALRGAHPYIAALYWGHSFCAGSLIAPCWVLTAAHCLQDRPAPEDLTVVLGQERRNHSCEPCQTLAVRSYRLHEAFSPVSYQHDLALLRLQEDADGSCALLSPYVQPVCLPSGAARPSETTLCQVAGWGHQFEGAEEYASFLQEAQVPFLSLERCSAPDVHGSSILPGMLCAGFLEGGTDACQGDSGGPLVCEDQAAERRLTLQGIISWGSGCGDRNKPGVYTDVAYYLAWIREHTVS
Sequence (P00748 20-372 partner): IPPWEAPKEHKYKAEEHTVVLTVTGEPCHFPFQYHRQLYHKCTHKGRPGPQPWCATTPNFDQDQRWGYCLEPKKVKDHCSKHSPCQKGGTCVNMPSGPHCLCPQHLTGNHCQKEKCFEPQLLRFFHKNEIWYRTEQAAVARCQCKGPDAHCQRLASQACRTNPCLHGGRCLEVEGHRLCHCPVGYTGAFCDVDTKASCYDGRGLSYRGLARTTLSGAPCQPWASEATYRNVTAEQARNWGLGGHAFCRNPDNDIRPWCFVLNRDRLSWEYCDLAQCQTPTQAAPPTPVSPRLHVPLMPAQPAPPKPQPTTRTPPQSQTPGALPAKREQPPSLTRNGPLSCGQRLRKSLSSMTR

**Q.** For `CS(=O)(=O)N1CCc2c(nn(C(=O)[C@H]3CCCc4[nH]c(Cl)cc43)c2N)C1` (single isomer, unassigned) [Example 131, (S*)-(3-amino-6-(methylsulfonyl)-4,5,6,7-tetrahydro-pyrazolo[3,4-c]pyridin-2-yl)(2-chloro-4,5,6,7-tetrahydro-1H-indol-4-yl)methanone], which IC50 is on record?
**A.** Its IC50 is 0.03 µM.

**Q.** Which IC50 does the source give for `Nc1c2c(nn1C(=O)C1CCNc3ccc(F)cc31)CN(S(=O)(=O)C1CC1)CC2` (stereo not shown) [Example 144, (3-amino-6-(cyclopropyl-sulfonyl)-4,5,6,7-tetrahydro-pyrazolo[3,4-c]pyridin-2-yl)(6-fluoro-1,2,3,4-tetrahydro-quinolin-4-yl)methanone] here?
**A.** Its IC50 is 0.23 µM.

**Q.** How did the IC50 turn out when `CS(=O)(=O)N1CCc2c(nn(C(=O)C3CCNc4c(Cl)cccc43)c2N)C1` (stereo not shown) [Example 57, (3-amino-6-(methylsulfonyl)-4,5,6,7-tetrahydropyrazolo[3,4-c]pyridin-2-yl)(8-chloro-1,2,3,4-tetrahydroquinolin-4-yl)methanone] was run?
**A.** The IC50 was 0.05 µM.

**Q.** With `Nc1nn(C(=O)C2CCNc3ccc(F)cc32)c2c1COCC2` (stereo not shown) [Example 75, (3-amino-6,7-dihydropyrano[4,3-c]pyrazol-1(4H)-yl)(6-fluoro-1,2,3,4-tetrahydroquinolin-4-yl)methanone] as the compound, how does the IC50 read?
**A.** Its IC50 is 25 µM.

**Q.** With `CCCN1CCc2c(N)nn(C(=O)C3CCNc4ccc(F)cc43)c2C1` (stereo not shown) [Example 150, (3-amino-6-propyl-4,5,6,7-tetrahydro-pyrazolo[3,4-c]pyridin-1-yl)(6-fluoro-1,2,3,4-tetrahydro-quinolin-4-yl)methanone] as the compound, how does the IC50 read?
**A.** The IC50 was > 70 µM.

**Q.** `COC(=O)N1CCc2c(N)nn(C(=O)C3CCNc4ccccc43)c2C1` (stereo not shown) [Example 115, methyl 3-amino-1-(1,2,3,4-tetrahydro-quinoline-4-carbonyl)-4,5-dihydro-1H-pyrazolo[3,4-c]pyridine-6(7H)-carboxylate] was tested. Which IC50 did it give?
**A.** Its IC50 is 30 µM.

**Q.** With `COc1ccc2c(c1)C(C(=O)n1nc(N)c3c1CN(S(C)(=O)=O)CC3)CCN2` (stereo not shown) [Example 23, (3-amino-6-(methylsulfonyl)-4,5,6,7-tetrahydropyrazolo[3,4-c]pyridin-1-yl)(6-methoxy-1,2,3,4-tetrahydroquinolin-4-yl)methanone] as the compound, how does the IC50 read?
**A.** The IC50 was > 60 µM.

**Q.** Which IC50 does the source give for `Cc1ccc2c(c1)C(C(=O)n1nc(N)c3c1CN(S(C)(=O)=O)CC3)CCN2` (stereo not shown) [Example 13, (3-amino-6-(methylsulfonyl)-4,5,6,7-tetrahydropyrazolo[3,4-c]pyridin-1-yl)(6-methyl-1,2,3,4-tetrahydroquinolin-4-yl)methanone] here?
**A.** The IC50 was > 90 µM.

**Q.** `CC(C)S(=O)(=O)N1CCc2c(N)nn(C(=O)C3CCNc4ccc(F)cc43)c2C1` (stereo not shown) [Example 137, (3-amino-6-(isopropyl-sulfonyl)-4,5,6,7-tetrahydro-pyrazolo[3,4-c]pyridin-1-yl)(6-fluoro-1,2,3,4-tetrahydro-quinolin-4-yl)methanone] was tested. Which IC50 did it give?
**A.** The IC50 was 7 µM.

**Q.** Which IC50 does the source give for `CCN1CCc2c(nn(C(=O)[C@@H]3CCNc4c(C)cc(F)cc43)c2N)C1` (single isomer, unassigned) [Example 171, (R*)-(3-amino-6-ethyl-4,5,6,7-tetrahydro-pyrazolo[3,4-c]pyridin-2-yl)(6-fluoro-8-methyl-1,2,3,4-tetrahydro-quinolin-4-yl)methanone] here?
**A.** Its IC50 is 4.5 µM.

**Q.** How did the IC50 turn out when `Cc1cccc2c1NCCC2C(=O)n1nc2c(c1N)CCN(S(C)(=O)=O)C2C` (single isomer, unassigned) [Example 78, (3-amino-7-methyl-6-(methylsulfonyl)-4,5,6,7-tetrahydropyrazolo[3,4-c]pyridin-2-yl)(8-methyl-1,2,3,4-tetrahydroquinolin-4-yl)methanone] was run?
**A.** Its IC50 is > 80 µM.

**Q.** With `Nc1nn(C(=O)C2CCNc3ccc(F)cc32)c2c1CCN(S(=O)(=O)CC(F)F)C2` (stereo not shown) [Example 143, (3-amino-6-(2,2-difluoroethyl-sulfonyl)-4,5,6,7-tetrahydro-pyrazolo[3,4-c]pyridin-1-yl)(6-fluoro-1,2,3,4-tetrahydro-quinolin-4-yl)methanone] as the compound, how does the IC50 read?
**A.** Its IC50 is 17 µM.

**Q.** How did the IC50 turn out when `Cc1cc(F)cc2c1NCCC2C(=O)n1nc2c(c1N)CCN(S(C)(=O)=O)C2` (single isomer, unassigned) [Example 54, (R*)-(3-amino-6-(methylsulfonyl)-4,5,6,7-tetrahydropyrazolo[3,4-c]pyridin-2-yl)(6-fluoro-8-methyl-1,2,3,4-tetrahydroquinolin-4-yl)methanone] was run?
**A.** Its IC50 is 2.5 µM.

**Q.** How did the IC50 turn out when `CS(=O)(=O)N1CCc2c(N)nn(C(=O)C3CCNc4ccc(-c5ccccc5)cc43)c2C1` (stereo not shown) [Example 50, (3-amino-6-(methylsulfonyl)-4,5,6,7-tetrahydropyrazolo[3,4-c]pyridin-1-yl)(6-phenyl-1,2,3,4-tetrahydroquinolin-4-yl)methanone] was run?
**A.** Its IC50 is > 80 µM.

**Q.** `CCN1CCc2c(N)nn(C(=O)C3CCNc4c(C)cccc43)c2C1` (stereo not shown) [Example 175, (3-amino-6-ethyl-4,5,6,7-tetrahydro-pyrazolo[3,4-c]pyridin-1-yl)(8-methyl-1,2,3,4-tetrahydro-quinolin-4-yl)methanone] was tested. Which IC50 did it give?
**A.** The IC50 was 50 µM.

**Q.** With `Nc1c2c(nn1C(=O)C1CCNc3ccc(F)cc31)CN(S(=O)(=O)c1ccncc1)CC2` (stereo not shown) [Example 155, (3-amino-6-(pyridin-4-ylsulfonyl)-4,5,6,7-tetrahydro-pyrazolo[3,4-c]pyridin-2-yl)(6-fluoro-1,2,3,4-tetrahydro-quinolin-4-yl)methanone] as the compound, how does the IC50 read?
**A.** The IC50 was 1.2 µM.

**Q.** How did the IC50 turn out when `Nc1c2c(nn1C(=O)C1CCNc3c(Cl)cccc31)CNCC2` (single isomer, unassigned) [Example 73, (R*)-(3-amino-4,5,6,7-tetrahydropyrazolo[3,4-c]pyridin-2-yl)(8-chloro-1,2,3,4-tetrahydroquinolin-4-yl)methanone] was run?
**A.** Its IC50 is 7 µM.

**Q.** Which IC50 does the source give for `Cc1cccc2c1NCC[C@@H]2C(=O)n1nc2c(c1N)CCN(CCO)C2` (single isomer, unassigned) [Example 204, (S*)-(3-amino-6-(2-hydroxyethyl)-4,5,6,7-tetrahydro-2H-pyrazolo[3,4-c]pyridin-2-yl)(8-methyl-1,2,3,4-tetrahydro-quinolin-4-yl)methanone] here?
**A.** Its IC50 is 0.04 µM.

**Q.** For `CS(=O)(=O)N1CCc2c(N)nn(C(=O)C3CCNc4c(Cl)cccc43)c2C1` (stereo not shown) [Example 58, (3-amino-6-(methylsulfonyl)-4,5,6,7-tetrahydropyrazolo[3,4-c]pyridin-1-yl)(8-chloro-1,2,3,4-tetrahydroquinolin-4-yl)methanone], which IC50 is on record?
**A.** The IC50 was 60 µM.

**Q.** Which IC50 does the source give for `CCc1cc2c([nH]1)CCCC2C(=O)n1nc(N)c2c1CCN(C(=O)OCc1ccccc1)C2` (stereo not shown) [Example 5, benzyl 3-amino-1-(2-ethyl-4,5,6,7-tetrahydro-1H-indole-4-carbonyl)-6,7-dihydro-1H-pyrazolo[4,3-c]pyridine-5(4H)-carboxylate] here?
**A.** The IC50 was > 40 µM.

**Q.** Which IC50 does the source give for `Nc1c2c(nn1C(=O)[C@@H]1CCNc3ccc(F)cc31)CNCC2` (single isomer, unassigned) [Example 147, (R*)-(3-amino-4,5,6,7-tetrahydro-pyrazolo[3,4-c]pyridin-2-yl)(6-fluoro-1,2,3,4-tetrahydro-quinolin-4-yl)methanone] here?
**A.** The IC50 was 10 µM.

**Q.** Which IC50 does the source give for `Cc1cccc2c1NCCC2C(=O)n1nc(N)c2c1CNCC2` (stereo not shown) [Example 178, (3-amino-4,5,6,7-tetrahydro-pyrazolo[3,4-c]pyridin-1-yl)(8-methyl-1,2,3,4-tetrahydro-quinolin-4-yl)methanone] here?
**A.** The IC50 was 60 µM.

target: Human alpha-thrombin (Homo sapiens (Human), UniProt P00734); assay: Thrombin counterscreen for selectivity, fluorogenic substrate cleavage; assay type: biochemical; settings: 10 min pre-incubation, Boc-Val-Pro-Arg-AMC 20 μM
Protocol: Counterscreens for Selectivity:
Thrombin. In a 96-well white opaque plate, 80 μl of assay buffer was added to each well. Test compounds were added, and serially diluted as above, to generate a concentration range of approximately 1-100 μM. Human alpha-thrombin (Enzyme Research Labs) was diluted in assay buffer to a final concentration of 12.5 nM. 80 μl of this enzyme solution was added to the assay wells. The enzyme/compound mixtures were incubated for 10 minutes at room temperature. Fluorogenic substrate (Boc-Val-Pro-Arg-7-amido-4-methylcoumarin; Sigma) was added to assay wells at a final concentration of 20 μM. The assay plate was spun for 1 minute at 1500 g and then read at 37° C. in a SpectraMax M2 plate reader (λex=380 nm and λem=460 nm). Activity was quantified as the rate of change in fluorescence, which corresponds to the rate of substrate cleavage. IC50 values were determined as the concentration of inhibitor that produced 50% of the rate of change of control wells without any inhibitor. For compounds with activity <1 μM, the assay was repeated with a lower concentration range, typically from 10-1000 nM.

**Q.** `CS(=O)(=O)N1CCc2c(nn(C(=O)[C@H]3CCCc4[nH]c(Cl)cc43)c2N)C1` (single isomer, unassigned) [Example 131, (S*)-(3-amino-6-(methylsulfonyl)-4,5,6,7-tetrahydro-pyrazolo[3,4-c]pyridin-2-yl)(2-chloro-4,5,6,7-tetrahydro-1H-indol-4-yl)methanone] was tested. Which IC50 did it give?
**A.** The IC50 was 1.5 µM.

**Q.** With `Nc1c2c(nn1C(=O)C1CCNc3ccc(F)cc31)CN(S(=O)(=O)C1CC1)CC2` (stereo not shown) [Example 144, (3-amino-6-(cyclopropyl-sulfonyl)-4,5,6,7-tetrahydro-pyrazolo[3,4-c]pyridin-2-yl)(6-fluoro-1,2,3,4-tetrahydro-quinolin-4-yl)methanone] as the compound, how does the IC50 read?
**A.** Its IC50 is > 80 µM.

**Q.** For `CS(=O)(=O)N1CCc2c(nn(C(=O)C3CCNc4c(Cl)cccc43)c2N)C1` (stereo not shown) [Example 57, (3-amino-6-(methylsulfonyl)-4,5,6,7-tetrahydropyrazolo[3,4-c]pyridin-2-yl)(8-chloro-1,2,3,4-tetrahydroquinolin-4-yl)methanone], which IC50 is on record?
**A.** Its IC50 is 16 µM.
